From article PMC3723849, “Evaluation of Phage Display Discovered Peptides as Ligands for Prostate-Specific Membrane Antigen (PSMA)” (PLoS ONE, 2013)
Residues, ends and D or L forms follow the SMILES beside them. *: point of attachment. Acm = CC(=O)NC*

What was measured:
PSMA-His6 [1] = target: T1, PSMA-His6 (Homo sapiens, UniProt Q04609); assay: PSMA enzyme assay (NAAG hydrolysis, Amplex Red glutamate detection); assay type: biochemical; parameters: A 15-mer library was screened against the soluble ectodomain of PSMA; purchased R&D Systems
T1 sequence (Q04609 44-750 limits assumed): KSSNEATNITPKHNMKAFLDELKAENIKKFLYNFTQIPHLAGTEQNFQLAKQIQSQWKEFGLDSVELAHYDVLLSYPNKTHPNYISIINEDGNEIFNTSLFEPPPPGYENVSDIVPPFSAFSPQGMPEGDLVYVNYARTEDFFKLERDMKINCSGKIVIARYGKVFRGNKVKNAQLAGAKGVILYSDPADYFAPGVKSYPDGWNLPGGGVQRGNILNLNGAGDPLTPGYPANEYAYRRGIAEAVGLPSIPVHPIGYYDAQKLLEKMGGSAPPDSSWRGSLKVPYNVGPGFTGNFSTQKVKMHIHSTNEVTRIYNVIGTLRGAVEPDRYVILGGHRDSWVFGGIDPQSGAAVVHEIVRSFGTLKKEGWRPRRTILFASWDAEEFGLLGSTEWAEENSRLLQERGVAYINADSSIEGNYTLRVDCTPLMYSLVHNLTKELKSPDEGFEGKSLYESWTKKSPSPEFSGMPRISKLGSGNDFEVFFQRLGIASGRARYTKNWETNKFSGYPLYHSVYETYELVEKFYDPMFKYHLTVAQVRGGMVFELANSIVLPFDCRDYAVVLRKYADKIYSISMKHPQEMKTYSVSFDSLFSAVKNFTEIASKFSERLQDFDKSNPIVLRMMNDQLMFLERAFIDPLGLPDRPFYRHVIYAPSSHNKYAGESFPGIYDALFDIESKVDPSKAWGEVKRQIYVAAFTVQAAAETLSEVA
Experimental: The glutamic acid/glutamate released from the natural substrate of PSMA, NAAG (N-acetylaspartylglutamate), was analyzed by the fluorescence-based Amplex Red Glutamic Acid/Glutamate Oxidase assay kit (Invitrogen) as previously described, [22], [32], [33]. […] Then NAAG (4 µM, 10 µL) was added to the peptide/PSMA-His6 mixture (37°C, 30 min). The enzymatic reaction was quenched (500 mM NaH2PO4/Na2HPO4, pH 7.4, 10 µL). […] Data was analyzed by non-linear regression with GraphPad Prism.

PSMA-His6 [2] = target: T1, PSMA-His6; assay: AlphaScreen competition binding assay
Experimental: The AlphaScreen competition binding assay was performed based on published procedures [29], [30], [31]. […] The mixture was incubated (ambient temperature, 1 h), and then nickel chelate acceptor beads (5 µL, 120 µg/mL) were added followed by a second incubation (dark, ambient temperature, 1 h). Streptavidin donor beads (5 µL, 120 µg/mL) were added for a final incubation (dark, ambient temperature, 30 m). […] Data was analyzed by non-linear regression with GraphPad Prism.
Only when the peptide binds to PSMA (thus bringing the two beads close to each other), can the AlphaScreen (emission) signal be generated, in which case, the singlet oxygen generated by the excitation at 680 nm on the donor bead can transfer energy to the adjacent acceptor bead and subsequently produce an emission signal at 520–620 nm.

[3] = NAAG substrate, PSMA-His6, 37°C, read-out: Enzyme inhibition (footnote symbols: no inhibition observed at the stated concentration)
[4] = highest concentration tested without inhibition, limited by solubility of the peptide, read-out: PSMA enzymatic reaction: no inhibition at the stated concentration

| IC50 (PSMA-His6 [1]; [3]) | IC50 (PSMA-His6 [1]; [4]) | IC50 (PSMA-His6 [2]) | SMILES | IC50 (PSMA-His6 [1]; against 1 µM NAAG, peptide pre-incubated with PSMA-His6 37°C 30 min, reaction 37°C 30 min, TBS, fluorescence Ex 530/Em 590, read-out: Enzyme inhibition IC50) |
| --- | --- | --- | --- | --- |
| > 14.5 µM | > 14.5 µM | > 4.83 µM | CC[C@H](C)[C@H](NC(=O)[C@H](CSCNC(C)=O)NC(=O)[C@H](CCCNC(=N)N)NC(=O)[C@H](CCSC)NC(=O)[C@H](CC(C)C)NC(=O)[C@H](Cc1ccccc1)NC(=O)[C@H](CC(C)C)NC(=O)[C@H](CC(C)C)NC(=O)[C@H](Cc1ccccc1)NC(=O)[C@H](CCSC)NC(=O)[C@H](CCCNC(=N)N)NC(=O)[C@H](C)N)C(=O)NCC(=O)N[C@@H](CSCNC(C)=O)C(=O)N[C@@H](Cc1ccc(O)cc1)C(N)=O [Peptide 565] (H-ARMFLLFLMRC(Acm)IGC(Acm)Y-NH2; N-terminus assumed) |  |
|  |  |  | CC(C)[C@H](NC(=O)[C@H](CO)NC(=O)[C@H](Cc1ccccc1)NC(=O)[C@H](CO)NC(=O)[C@H](Cc1c[nH]cn1)NC(=O)[C@@H](N)CO)C(=O)NCC(=O)N[C@@H](CO)C(=O)NCC(=O)N[C@@H](CC(=O)O)C(=O)N[C@@H](Cc1c[nH]cn1)C(=O)N[C@@H](CO)C(=O)N1CCC[C@H]1C(=O)N[C@@H](Cc1ccccc1)C(=O)N[C@H](C(=O)NCC(=O)NCC(=O)NCC(=O)N[C@@H](CO)C(=O)NCCOCCOCCOCCOCCOCCOCCC(=O)N[C@@H](CSC1CC(=O)N(CCC(=O)NCCCC[C@H](NC(=O)CCN2C(=O)CC(SC[C@H](NC(=O)CCOCCOCCOCCOCCOCCOCCNC(=O)[C@H](CO)NC(=O)CNC(=O)CNC(=O)CNC(=O)[C@@H](NC(=O)[C@H](Cc3ccccc3)NC(=O)[C@@H]3CCCN3C(=O)[C@H](CO)NC(=O)[C@H](Cc3c[nH]cn3)NC(=O)[C@H](CC(=O)O)NC(=O)CNC(=O)[C@H](CO)NC(=O)CNC(=O)[C@@H](NC(=O)[C@H](CO)NC(=O)[C@H](Cc3ccccc3)NC(=O)[C@H](CO)NC(=O)[C@H](Cc3c[nH]cn3)NC(=O)[C@@H](N)CO)C(C)C)[C@@H](C)O)C(N)=O)C2=O)C(=O)NCCCC[C@H](NC(=O)[C@H](CCCCNC(=O)CCN2C(=O)CC(SC[C@H](NC(=O)CCOCCOCCOCCOCCOCCOCCNC(=O)[C@H](CO)NC(=O)CNC(=O)CNC(=O)CNC(=O)[C@@H](NC(=O)[C@H](Cc3ccccc3)NC(=O)[C@@H]3CCCN3C(=O)[C@H](CO)NC(=O)[C@H](Cc3c[nH]cn3)NC(=O)[C@H](CC(=O)O)NC(=O)CNC(=O)[C@H](CO)NC(=O)CNC(=O)[C@@H](NC(=O)[C@H](CO)NC(=O)[C@H](Cc3ccccc3)NC(=O)[C@H](CO)NC(=O)[C@H](Cc3c[nH]cn3)NC(=O)[C@@H](N)CO)C(C)C)[C@@H](C)O)C(N)=O)C2=O)NC(=O)CCN2C(=O)CC(SC[C@H](NC(=O)CCOCCOCCOCCOCCOCCOCCNC(=O)[C@H](CO)NC(=O)CNC(=O)CNC(=O)CNC(=O)[C@@H](NC(=O)[C@H](Cc3ccccc3)NC(=O)[C@@H]3CCCN3C(=O)[C@H](CO)NC(=O)[C@H](Cc3c[nH]cn3)NC(=O)[C@H](CC(=O)O)NC(=O)CNC(=O)[C@H](CO)NC(=O)CNC(=O)[C@@H](NC(=O)[C@H](CO)NC(=O)[C@H](Cc3ccccc3)NC(=O)[C@H](CO)NC(=O)[C@H](Cc3c[nH]cn3)NC(=O)[C@@H](N)CO)C(C)C)[C@@H](C)O)C(N)=O)C2=O)C(=O)NCCC(=O)O)C1=O)C(N)=O)[C@@H](C)O (stereo partly drawn) [(562)4] | 311 µM |
| > 55.5 µM | > 55.5 µM |  | CC(=O)NCSC[C@H](NC(=O)[C@H](CO)NC(=O)[C@H](Cc1ccccc1)NC(=O)[C@H](Cc1ccccc1)NC(=O)[C@H](CO)NC(=O)[C@@H](N)CC(C)C)C(=O)N[C@@H](Cc1c[nH]c2ccccc12)C(=O)N[C@@H](CC(C)C)C(=O)N[C@@H](CCCNC(=N)N)C(=O)N[C@@H](CCCNC(=N)N)C(=O)N[C@@H](CO)C(=O)N[C@@H](Cc1ccccc1)C(=O)N[C@@H](CO)C(=O)N[C@@H](CC(C)C)C(=O)N[C@H](C(N)=O)[C@@H](C)O [Peptide 564] (H-LSFFSC(Acm)WLRRSFSLT-NH2) |  |
